Key:
Progesterone Receptor = target: T1, Progesterone Receptor (Oryctolagus cuniculus, UniProt P06186); assay: Receptor binding affinity, competitive binding of 3H-ORG 2058 tracer in uterus cytosol; details: relative binding affinity; uterus cytosol of the estradiol-primed rabbit; tracer 3H-ORG 2058; reference Progesterone = 100%
T1 construct: receptors in the cytosol from animal target organs; from tissue; host or cells: uterus cytosol of estradiol-primed rabbit
T1 sequence (P06186 1-930): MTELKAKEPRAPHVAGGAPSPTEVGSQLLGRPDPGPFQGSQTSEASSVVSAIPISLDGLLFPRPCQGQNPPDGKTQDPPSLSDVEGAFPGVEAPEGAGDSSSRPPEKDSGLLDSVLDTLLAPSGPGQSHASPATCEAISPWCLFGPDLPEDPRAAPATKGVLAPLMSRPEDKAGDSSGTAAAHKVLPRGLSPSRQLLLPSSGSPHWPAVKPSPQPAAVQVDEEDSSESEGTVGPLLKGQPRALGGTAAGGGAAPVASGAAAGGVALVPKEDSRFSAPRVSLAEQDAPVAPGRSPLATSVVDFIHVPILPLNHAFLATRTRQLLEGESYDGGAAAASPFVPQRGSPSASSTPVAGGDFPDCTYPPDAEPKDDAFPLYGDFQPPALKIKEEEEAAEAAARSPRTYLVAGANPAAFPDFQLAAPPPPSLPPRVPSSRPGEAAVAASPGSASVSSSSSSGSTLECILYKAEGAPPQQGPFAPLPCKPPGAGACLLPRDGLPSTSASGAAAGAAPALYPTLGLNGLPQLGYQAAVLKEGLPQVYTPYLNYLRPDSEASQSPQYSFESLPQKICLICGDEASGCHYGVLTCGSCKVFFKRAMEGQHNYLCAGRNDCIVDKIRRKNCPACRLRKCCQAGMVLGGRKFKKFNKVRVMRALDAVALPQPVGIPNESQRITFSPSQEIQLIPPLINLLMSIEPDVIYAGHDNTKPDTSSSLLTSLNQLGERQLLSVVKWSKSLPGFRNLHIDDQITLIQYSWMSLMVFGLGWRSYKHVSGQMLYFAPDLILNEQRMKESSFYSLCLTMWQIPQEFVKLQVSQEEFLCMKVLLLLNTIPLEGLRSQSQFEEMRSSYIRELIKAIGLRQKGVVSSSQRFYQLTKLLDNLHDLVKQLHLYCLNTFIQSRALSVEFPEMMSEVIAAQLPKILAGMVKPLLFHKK
Protocol: (§1) The receptor binding affinity was determined by competitive binding of a specifically binding ^3H-labeled tracer and the compound to be tested to receptors in the cytosol from animal target organs. In this case, receptor saturation and reaction equilibrium in the case of the following reaction conditions were sought:
(§2) Uterus cytosol of the estradiol-primed rabbit, stored at −30° C., in TED buffer (20 mmol of Tris/HCl, pH 7.4; 1 mmol of ethylenediamine tetraacetate, 2 mmol of dithiothreitol) with 250 mmol of saccharose. • Tracer: ^3H—ORG 2058 • Reference substance: Progesterone Glucocorticoid Receptor: • Thymus cytosol of the adrenalectomized rat, thymi stored at −30° C.; TED buffer • Tracer: ^3H-Dexamethasone, 20 nmol • Reference substance: Dexamethasone

Glucocorticoid Receptor = target: T2, Glucocorticoid Receptor (Rattus norvegicus, UniProt P06536); assay: Receptor binding affinity, competitive binding of 3H-Dexamethasone tracer in thymus cytosol; details: relative binding affinity; thymus cytosol of the adrenalectomized rat; tracer 3H-Dexamethasone; reference Dexamethasone = 100%
T2 construct: receptors in the cytosol from animal target organs; from tissue; host or cells: thymus cytosol of adrenalectomized rat
T2 sequence (P06536 1-795): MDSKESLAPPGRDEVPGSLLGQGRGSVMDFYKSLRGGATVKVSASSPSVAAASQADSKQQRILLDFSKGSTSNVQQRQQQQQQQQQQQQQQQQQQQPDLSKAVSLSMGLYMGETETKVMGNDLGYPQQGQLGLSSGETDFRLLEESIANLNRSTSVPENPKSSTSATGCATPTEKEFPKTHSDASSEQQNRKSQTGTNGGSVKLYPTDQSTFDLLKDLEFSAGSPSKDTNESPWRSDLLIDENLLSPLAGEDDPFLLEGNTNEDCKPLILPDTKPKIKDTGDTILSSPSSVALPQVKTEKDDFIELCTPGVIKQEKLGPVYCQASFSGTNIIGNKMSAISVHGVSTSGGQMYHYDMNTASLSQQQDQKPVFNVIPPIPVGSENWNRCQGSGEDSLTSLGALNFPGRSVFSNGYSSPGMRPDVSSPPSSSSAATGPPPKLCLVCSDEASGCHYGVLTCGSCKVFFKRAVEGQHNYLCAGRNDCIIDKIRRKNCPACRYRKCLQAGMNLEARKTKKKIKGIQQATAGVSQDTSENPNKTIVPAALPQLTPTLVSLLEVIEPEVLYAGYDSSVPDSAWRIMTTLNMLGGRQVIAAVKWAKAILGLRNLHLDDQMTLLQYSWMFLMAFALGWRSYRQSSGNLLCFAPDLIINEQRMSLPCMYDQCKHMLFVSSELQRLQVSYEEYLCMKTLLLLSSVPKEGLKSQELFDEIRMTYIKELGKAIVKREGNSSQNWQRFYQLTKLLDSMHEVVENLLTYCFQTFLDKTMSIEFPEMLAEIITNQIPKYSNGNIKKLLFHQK
Protocol: as §1, §2

pregnancy in the rat = assay: Early-abortive action in the rat; type: in vivo; details: subcutaneous, 5th to 7th day of pregnancy; dose giving complete inhibition of pregnancy
Protocol: The early-abortive action was determined in the rat after subcutaneous administration from the 5th to the 7th day of pregnancy [administration 0.2 ml/animal/day in benzyl benzoate/castor oil (1+4 v/v)]. The dose indicates what amount must be given to at least 4 animals apiece in comparison to untreated animals, so that a complete inhibition of pregnancy is achieved.

| Compound | Progesterone Receptor [Progesterone = 100%] (Progesterone Receptor) [%] | Glucocorticoid Receptor [Dexamethasone = 100%] (Glucocorticoid Receptor) [%] | 100% Early-abortive Action in the Rat (pregnancy in the rat) [mg/animal/day] |
| --- | --- | --- | --- |
| COCC1(OC)CCC2C3CCC4=CC(=O)CCC4=C3C(c3ccc(C=NO)cc3)CC21C (stereo not drawn) [4-[17β-methoxy-17α-(methoxymethyl)-3-oxoestra-4,9-dien-11β-yl]benzaldehyde-1Z-oxime] | 126 | 52 | 1.0 |
| CC#C[C@]1(O)CC[C@H]2[C@@H]3CCC4=CC(=O)CCC4=C3[C@@H](c3ccc(N(C)C)cc3)C[C@@]21C [Ru 38 486, reference compound] | 685 | – | 3.0 |
| COCC1(O)CCC2C3CCC4=CC(=O)CCC4=C3C(c3ccc(C=NO)cc3)CC21C (stereo not drawn) [4-[17β-Hydroxy-(17α-(methoxymethyl)-3-oxoestra-4,9-dien-11β-] [4-[17β-hydroxy-17α-(methoxymethyl)-3-oxoestra-4,9-dien-11β-yl]benzaldehyde-1Z-oxime] | – | 67 | – |
| COCC1(O)CCC2C3CCC4=CC(=O)CCC4=C3C(c3ccc(C=NO)cc3)CC21C (stereo not drawn) [4-[17β-Hydroxy-(17α-(methoxymethyl)-3-oxoestra-4,9-dien-11β-] [4-[17β-Hydroxy-17α-(methoxymethyl)-3-oxoestra-4,9-dien-11β-yl]benzaldehyde-1E-oxime] | – | 76 | 1.0 |
| CC12CC(c3ccc(C=NO)cc3)C3=C4CCC(=O)C=C4CCC3C1CCC2(O)COCC(F)(F)F (stereo not drawn) [4-[17β-Hydroxy-(17α-(1,1,1-trifluoroethoxymethyl)-3-oxoestra-4,9-dien-11β-yl]benzaldehyde-1E-oxime] | 177 | 94 | 3.0 |
| COC[C@]1(OC)CC[C@H]2[C@@H]3CCC4=CC(=O)CCC4=C3[C@@H](c3ccc(/C=N/O)cc3)C[C@@]21C [4-[17β-Methoxy-17α-(methoxymethyl)-3-oxoestra-4,9-dien-11β-yl] benzaldehyde-1E-oxime] | 302 | 78 | 1.0 |

From patent US7268241B2, “Method for the production of 4-(17$g(a)-methyl substituted 3-oxoestra-4 9-dien-11$g(b)-yl)benzaldehyd-(1e or 1z)-oximes” (Schering AG, priority 2000, dated 2007)
